How the values were obtained:
Assay type in all cases: biochemical
SIK1 = SIK1 (Homo sapiens, UniProt P57059); test: Enzymatic activity assay SIK1, RapidFire mass spectrometry (phosphorylation of CHK-peptide); conditions: RapidFire MS, inhibition of SIK1; read-out: SIK1 RF IC50
How it was run: (§1)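 Compounds (12-point, 3-fold, generally 30 μM to 170 pM) were pre-incubated 30 min at ambient temperature with SIK1 (5 nM), SIK2 (0.5 nM) or SIK3 (1.5 nM) in HEPES pH 7.0/magnesium acetate buffer. CHK-peptide (10 μM solution) and ATP (100 μM solution) were then added for 45 min before formic acid quench.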

SIK2 = SIK2 (Homo sapiens, UniProt Q9H0K1); test: Enzymatic activity assay SIK2, RapidFire mass spectrometry (phosphorylation of CHK-peptide); conditions: RapidFire MS, inhibition of SIK2; read-out: SIK2 RF IC50
Sequence of SIK2 (Q9H0K1 whole entry): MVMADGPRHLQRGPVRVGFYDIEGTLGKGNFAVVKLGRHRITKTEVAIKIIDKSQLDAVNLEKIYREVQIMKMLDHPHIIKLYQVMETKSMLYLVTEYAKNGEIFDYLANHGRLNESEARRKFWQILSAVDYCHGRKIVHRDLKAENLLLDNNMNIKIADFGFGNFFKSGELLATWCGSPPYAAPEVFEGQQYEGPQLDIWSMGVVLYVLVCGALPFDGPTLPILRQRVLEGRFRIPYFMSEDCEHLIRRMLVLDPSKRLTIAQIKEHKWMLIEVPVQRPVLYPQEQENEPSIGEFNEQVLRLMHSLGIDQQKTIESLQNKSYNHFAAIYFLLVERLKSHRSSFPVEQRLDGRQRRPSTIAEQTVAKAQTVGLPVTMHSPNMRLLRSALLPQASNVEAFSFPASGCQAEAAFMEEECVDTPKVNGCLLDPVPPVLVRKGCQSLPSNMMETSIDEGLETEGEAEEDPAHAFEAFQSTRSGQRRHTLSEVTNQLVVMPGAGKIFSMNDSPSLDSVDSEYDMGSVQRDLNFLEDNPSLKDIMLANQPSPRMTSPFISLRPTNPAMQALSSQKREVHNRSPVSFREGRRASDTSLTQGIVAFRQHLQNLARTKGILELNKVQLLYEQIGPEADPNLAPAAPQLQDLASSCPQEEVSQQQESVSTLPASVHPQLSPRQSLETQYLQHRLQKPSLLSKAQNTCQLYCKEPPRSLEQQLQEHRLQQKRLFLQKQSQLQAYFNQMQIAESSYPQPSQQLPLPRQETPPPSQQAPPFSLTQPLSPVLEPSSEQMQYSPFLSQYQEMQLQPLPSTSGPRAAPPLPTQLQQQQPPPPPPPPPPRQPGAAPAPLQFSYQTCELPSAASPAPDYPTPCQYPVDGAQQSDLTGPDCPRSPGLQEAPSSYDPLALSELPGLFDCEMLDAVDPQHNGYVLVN
How it was run: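 SIK2 (0.5 nM) in pH 7.0 HEPES buffer with 10 mM Mg acetate phosphorylates CHK-peptide (10 μM solution) with 100 μM ATP solution, 45 min ambient, then formic acid quench.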

SIK3 = SIK3 (Homo sapiens, UniProt Q9Y2K2); test: Enzymatic activity assay SIK3, RapidFire mass spectrometry (phosphorylation of CHK-peptide); conditions: RapidFire MS, inhibition of SIK3; read-out: SIK3 RF IC50
Sequence of SIK3 (Q9Y2K2 whole entry): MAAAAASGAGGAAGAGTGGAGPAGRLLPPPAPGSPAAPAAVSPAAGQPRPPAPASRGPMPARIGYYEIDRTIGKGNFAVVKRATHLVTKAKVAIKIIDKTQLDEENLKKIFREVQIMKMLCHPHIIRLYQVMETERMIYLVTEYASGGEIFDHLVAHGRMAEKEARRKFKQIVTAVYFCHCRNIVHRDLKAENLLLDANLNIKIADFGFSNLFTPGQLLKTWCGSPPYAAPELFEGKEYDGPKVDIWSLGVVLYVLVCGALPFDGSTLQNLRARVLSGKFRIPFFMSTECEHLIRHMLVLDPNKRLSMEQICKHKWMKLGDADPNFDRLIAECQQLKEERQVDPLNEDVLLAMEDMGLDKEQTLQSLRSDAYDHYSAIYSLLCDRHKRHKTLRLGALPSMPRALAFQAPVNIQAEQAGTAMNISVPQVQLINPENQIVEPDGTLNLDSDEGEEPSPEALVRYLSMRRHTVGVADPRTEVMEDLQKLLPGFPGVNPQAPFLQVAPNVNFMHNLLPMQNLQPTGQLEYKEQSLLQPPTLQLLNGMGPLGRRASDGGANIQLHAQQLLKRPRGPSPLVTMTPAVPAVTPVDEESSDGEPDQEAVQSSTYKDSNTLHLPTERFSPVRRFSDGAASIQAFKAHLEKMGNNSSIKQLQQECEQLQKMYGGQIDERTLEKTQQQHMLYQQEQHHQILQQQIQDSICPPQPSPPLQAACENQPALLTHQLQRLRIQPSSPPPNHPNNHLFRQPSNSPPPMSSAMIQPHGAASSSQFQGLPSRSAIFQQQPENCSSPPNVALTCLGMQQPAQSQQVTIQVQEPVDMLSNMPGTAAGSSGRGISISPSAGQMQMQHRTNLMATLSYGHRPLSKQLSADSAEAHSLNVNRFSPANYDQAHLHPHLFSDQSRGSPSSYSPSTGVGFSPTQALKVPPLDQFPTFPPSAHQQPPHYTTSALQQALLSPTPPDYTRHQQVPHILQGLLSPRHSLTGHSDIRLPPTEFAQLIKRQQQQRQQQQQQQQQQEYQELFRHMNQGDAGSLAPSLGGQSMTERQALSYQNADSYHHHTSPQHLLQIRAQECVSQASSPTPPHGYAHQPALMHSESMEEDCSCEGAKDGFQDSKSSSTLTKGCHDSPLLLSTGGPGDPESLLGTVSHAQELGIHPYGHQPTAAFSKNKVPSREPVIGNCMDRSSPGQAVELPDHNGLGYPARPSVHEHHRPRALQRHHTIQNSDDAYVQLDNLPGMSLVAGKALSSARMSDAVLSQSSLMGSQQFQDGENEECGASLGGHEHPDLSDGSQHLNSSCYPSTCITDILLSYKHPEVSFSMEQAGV
How it was run: as §1

Sequence of SIK1 (P57059 whole entry): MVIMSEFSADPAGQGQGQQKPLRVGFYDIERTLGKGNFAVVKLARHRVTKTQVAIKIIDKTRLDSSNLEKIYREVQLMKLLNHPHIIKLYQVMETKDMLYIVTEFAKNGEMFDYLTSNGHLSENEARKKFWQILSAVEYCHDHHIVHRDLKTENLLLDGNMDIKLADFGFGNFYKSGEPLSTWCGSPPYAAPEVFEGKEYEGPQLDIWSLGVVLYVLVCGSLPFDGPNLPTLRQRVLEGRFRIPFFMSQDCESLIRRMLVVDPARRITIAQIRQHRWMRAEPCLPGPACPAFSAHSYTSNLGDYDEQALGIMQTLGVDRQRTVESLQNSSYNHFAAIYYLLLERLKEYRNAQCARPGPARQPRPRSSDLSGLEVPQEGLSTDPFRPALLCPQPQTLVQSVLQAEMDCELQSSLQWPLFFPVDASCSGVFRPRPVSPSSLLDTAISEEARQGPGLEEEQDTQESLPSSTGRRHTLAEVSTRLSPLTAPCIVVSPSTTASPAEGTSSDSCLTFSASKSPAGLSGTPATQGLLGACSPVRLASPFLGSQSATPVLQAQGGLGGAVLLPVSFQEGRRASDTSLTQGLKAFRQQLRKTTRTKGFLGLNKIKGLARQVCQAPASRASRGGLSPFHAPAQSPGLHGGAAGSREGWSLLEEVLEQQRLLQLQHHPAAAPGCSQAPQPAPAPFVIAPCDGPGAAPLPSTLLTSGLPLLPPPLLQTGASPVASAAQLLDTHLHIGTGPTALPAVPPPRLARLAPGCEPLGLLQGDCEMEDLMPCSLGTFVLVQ

| Compound | IC50 (SIK1) [nM] | IC50 (SIK2) [nM] | IC50 (SIK3) [nM] |
| --- | --- | --- | --- |
| Cc1ccc(Nc2ccc3c(c2)ncn3-c2ccc(C(C)O)c(N(C)CC3(C#N)CC3)n2)nn1 (stereo not drawn) [Example 173, 1-[[[3-(1-Hydroxyethyl)-6-[5-[(6-methylpyridazin-3-yl)amino]benzimidazol-1-yl]-2-pyridyl]-methyl-amino]methyl]cyclopropanecarbonitrile] | 3490 | 198 | 53.9 |
| Cc1ccc(Nc2ccc3c(c2)ncn3-c2ccc(C(C)O)c(-n3nc(C#N)cc3C)n2)cn1 (stereo not drawn) [Example 81, 1-[3-(1-Hydroxyethyl)-6-[5-[(6-methyl-3-pyridyl)amino]benzimidazol-1-yl]-2-pyridyl]-5-methyl-pyrazole-3-carbonitrile] | 9 | 2.3 | 0.8 |
| Cc1cc(C(F)F)nn1-c1nc(-n2cnc3cc(Nc4ccc(Cl)nn4)c(F)cc32)ccc1C(C)O (stereo not drawn) [Example 372, 1-[6-[5-[(6-chloropyridazin-3-yl)amino]-6-fluoro-benzimidazol-1-yl]-2-[3-(difluoromethyl)-5-methyl-pyrazol-1-yl]-3-pyridyl]ethanol] | 1220 | 8.5 | 3.6 |
| Cc1cc(C#N)nn1-c1nc(-n2cnc3ccc(-c4ccc5c(n4)C(=O)N(C)C5)cc32)ccc1C(C)O (stereo not drawn) [Example 365, 1-[3-(1-hydroxyethyl)-6-[6-(6-methyl-7-oxo-5H-pyrrolo[3,4-b]pyridin-2-yl)benzimidazol-1-yl]-2-pyridyl]-5-methyl-pyrazole-3-carbonitrile] | 20 | 44.6 | 446 |
| COc1cc2ncn(-c3ccc(CO)c(NCCCCCO)n3)c2cc1OC [Example 32, 5-((6-(5,6-Dimethoxy-1H-benzo[d]imidazol-1-yl)-3-(hydroxymethyl)pyridin-2-yl)amino)pentan-1-ol] | 373 | 259 | 1400 |
| Cc1ccc(Nc2ccc3c(c2)ncn3-c2ccc(C(C)O)c(-n3nc(C#N)cc3C)n2)nc1 (stereo not drawn) [Example 84, 1-[3-(1-hydroxyethyl)-6-[5-[(5-methyl-2-pyridyl)amino]benzimidazol-1-yl]-2-pyridyl]-5-methyl-pyrazole-3-carbonitrile] | 7 | 5.3 | 2.1 |
| Cc1ccc(Nc2cc3ncn(-c4ccc([C@H](C)O)c(-n5nc(C#N)cc5C)n4)c3cc2F)nn1 [Example 236, 1-[6-[6-Fluoro-5-[(6-methylpyridazin-3-yl)amino]benzimidazol-1-yl]-3-[(1S)-1-hydroxyethyl]-2-pyridyl]-5-methyl-pyrazole-3-carbonitrile] | 84 | 0.3 | 0.3 |
| Cc1ccc(Nc2ccc3c(c2)ncn3-c2ccc(C(C)O)c(-c3cc(C(F)F)ncc3C)n2)nn1 (stereo not drawn) [Example 335, 1-[2-[2-(difluoromethyl)-5-methyl-4-pyridyl]-6-[5-[(6-methlpyridazin-3-yl)amino]benzimidazol-1-yl]-3-pyridyl]ethanol] | 10 | 1 | 0.3 |
| COc1cc2ncn(-c3ccc([C@@H](C)O)c(-c4ccn(C)c(=O)c4)n3)c2cc1OC [Example 42, (R)-6-(5,6-Dimethoxy-1H-benzo[d]imidazol-1-yl)-3-(1-hydroxyethyl)-1′-methyl-[2,4′-bipyridin]-2′(1′H)-one] | 1300 | 1040 | 2060 |
| Cc1ccc(Oc2ccc3c(c2)ncn3-c2ccc(C(C)O)c(-c3cn(CC(F)(F)F)nc3C)n2)nn1 (stereo not drawn) [Example 351, 1-[6-[5-(6-methylpyridazin-3-yl)oxybenzimidazol-1-yl]-2-[3-methyl-1-(2,2,2-trifluoroethyl)pyrazol-4-yl]-3-pyridyl]ethanol] | 3390 | 35.4 | 9.3 |
| Cc1cc(C(F)F)nn1-c1nc(-n2cnc3cc(Nc4cc5c(nn4)CCOC5)ccc32)ccc1CO [Example 317, [2-[3-(difluoromethyl)-5-methyl-pyrazol-1-yl]-6-[5-(7,8-dihydro-5H-pyrano[4,3-c]pyridazin-3-ylamino)benzimidazol-1-yl]-3-pyridyl]methanol] | 961 | 7.6 | 2.6 |
| COc1cc2ncn(-c3ccc([C@@H](C)O)c(-c4ccc(C#N)cc4)n3)c2cc1OC [Example 40, (R)-4-(6-(5,6-Dimethoxy-1H-benzo[d]imidazol-1-yl)-3-(1-hydroxyethyl)pyridin-2-yl)benzonitrile] | 1030 | 517 | 1660 |
| COc1cc(C(F)F)nn1-c1nc(-n2cnc3cc(Nc4ccc(C)nn4)ccc32)ccc1C(C)O (stereo not drawn) [Example 398, 1-[2-[3-(difluoromethyl)-5-methoxy-pyrazol-1-yl]-6-[5-[(6-methylpyridazin-3-yl)amino]benzimidazol-1-yl]-3-pyridyl]ethanol] | 271 | 3.9 | 2 |
| COC(C)Cn1cc(-c2nc(-n3cnc4cc(Nc5ccc(C)nn5)ccc43)ccc2C(C)O)c(C)n1 (stereo not drawn) [Example 278, 1-[2-[1-(2-methoxypropyl)-3-methyl-pyrazol-4-yl]-6-[5-[(6-methylpyridazin-3-yl)amino]benzimidazol-1-yl]-3-pyridyl]ethanol] | 249 | 2 | 4.7 |
| Cc1ccc(Nc2ccc3ncn(-c4ccc(C(C)O)c(N5CC[C@@H]6NCC[C@H]65)n4)c3c2)nn1 (stereo partly drawn) [Example 125, 1-[6-[6-[(6-Methylpyridazin-3-yl)amino]benzimidazol-1-yl]-2-[(3aR,6aS)-2,3,3a,5,6,6a-hexahydro-1H-pyrrolo[3,2-b]pyrrol-4-yl]-3-pyridyl]ethanol; formic acid] | 981 | 863 | 895 |
| COc1cc2ncn(-c3ccc(C(C)O)c(-c4ccc(F)cc4OC)n3)c2cc1OC (stereo not drawn) [Example 17, 1-(6-(5,6-Dimethoxy-1H-benzo[d]imidazol-1-yl)-2-(4-fluoro-2-methoxyphenyl)pyridin-3-yl)ethan-1-ol] | 327 | 155 | 1140 |
| Cc1ccc(Nc2ccc3c(c2)ncn3-c2ccc(C(C)O)c(-n3nc(C(F)F)cc3C(F)F)n2)nn1 (stereo not drawn) [Example 248, 1-[2-[3,5-Bis(difluoromethyl)pyrazol-1-yl]-6-[5-[(6-methylpyridazin-3-yl)amino]benzimidazol-1-yl]-3-pyridyl]ethanol] | 242 | 1.8 | 0.7 |
| COc1cc(C)n(-c2nc(-n3cnc4cc(Nc5ccc(C)nn5)ccc43)ccc2C(C)O)n1 (stereo not drawn) [Example 214, 1-[2-(3-Methoxy-5-methyl-pyrazol-1-yl)-6-[5-[(6-methylpyridazin-3-yl)amino]benzimidazol-1-yl]-3-pyridyl]ethanol; formic acid] | 1430 | 20.7 | 3.5 |
| Cc1ccc(Nc2ccc3c(c2)ncn3-c2ccc(C(C)O)c(N3C[C@H](C#N)C[C@@H]3C)n2)nn1 (stereo partly drawn) [Example 242, (3R,5S)-1-[3-(1-hydroxyethyl)-6-[5-[(6-methylpyridazin-3-yl)amino]benzimidazol-1-yl]-2-pyridyl]-5-methyl-pyrrolidine-3-carbonitrile; formic acid] | 843 | 9.5 | 1.8 |
| Cc1ccc(Nc2ccc3c(c2)ncn3-c2ccc(C(C)O)c(-n3cc(C#N)nn3)n2)nn1 (stereo not drawn) [Example 253, 1-[3-(1-Hydroxyethyl)-6-[5-[(6-methylpyridazin-3-yl)amino]benzimidazol-1-yl]-2-pyridyl]triazole-4-carbonitrile] | 8970 | 161 | 34.5 |
| CC(O)c1ccc(-n2cnc3cc(OCCN4CCOCC4)ccc32)nc1Oc1ccccc1 (stereo not drawn) [Example 53, 1-[6-[5-(2-Morpholinoethoxy)benzimidazol-1-yl]-2-phenoxy-3-pyridyl]ethanol] | 2150 | 320 | 405 |
| Cc1ccc(-c2ccc3c(c2)ncn3-c2ccc(C(C)O)c(-n3nc(C#N)cc3C)n2)nn1 (stereo not drawn) [Example 340, 1-[3-(1-hydroxyethyl)-6-[5-(6-methylpyridazin-3-yl)benzimidazol-1-yl]-2-pyridyl]-5-methyl-pyrazole-3-carbonitrile] | 42 | 20.3 | 17.9 |
| Cc1cc(C#N)nn1-c1nc(-n2cnc3cc(CN4CCCC4=O)ccc32)ccc1C(C)O (stereo not drawn) [Example 213, 1-[3-(1-Hydroxyethyl)-6-[5-[(2-oxopyrrolidin-1-yl)methyl]benzimidazol-1-yl]-2-pyridyl]-5-methyl-pyrazole-3-carbonitrile] | 7580 | 1520 | 174 |
| Cc1ccc(Nc2cc3ncn(-c4ccc(C(C)O)c(-n5nc(C#N)cc5C)n4)c3cc2OC2COC2)nn1 (stereo not drawn) [Example 282, 1-[3-(1-hydroxyethyl)-6-[5-[(6-methylpyridazin-3-yl)amino]-6-(oxetan-3-yloxy)benzimidazol-1-yl]-2-pyridyl]-5-methyl-pyrazole-3-carbonitrile] | 7 | 0.4 | 0.8 |
| 1-[6-[6-fluoro-5-[(5-fluoro-6-methyl-3-pyridyl)amino] benzimidazol-1-yl]-3-(1-hydroxyethyl)-2-pyridyl]-5-methyl-pyrazole-3-carbonitrile [Example 389] | 42 | 7.9 | 5.1 |
| Cc1ccc(Nc2ccc3c(c2)ncn3-c2ccc(C(C)O)c(-c3ccncc3C)n2)nn1 (stereo not drawn) [Example 162, 1-[6-[5-[(6-Methylpyridazin-3-yl)amino]benzimidazol-1-yl]-2-(3-methyl-4-pyridyl)-3-pyridyl]ethanol] | 8570 | 198 | 46.9 |

— US20240383875A1, “Benzimidazole Pyridine Derivatives” (Hoffmann-La Roche Inc., priority 2022, published 2024)
